pIC50: −log10 of the molar value.
molecular target: acyl-CoA:cholesterol acyltransferase (ACAT); assay: in vitro ACAT inhibition test: radio-labeled cholesteryl oleate formed from radio-labeled oleic acid in intestinal microsomes; assay type: biochemical; conditions: concentration required to inhibit cholesteryl oleate formation to 50% of control; tissue preparation containing rabbit intestinal microsomes
Description: The ability of representative compounds of the present invention to inhibit ACAT was measured using an in vitro test more fully described in Field, F. J. and Salone, R. G., Biochemica et Biophysica 712: 557-570 (1982). The test assesses the ability of a test compound to inhibit the acylation of cholesterol by oleic acid by measuring the amount of radio-labeled cholesterol oleate formed from radio-labeled oleic acid in a tissue preparation containing rabbit intestinal microsomes.
The data appear in the Table where they are expressed as IC₅₀ values; i.e. the concentration of test compound required to inhibit cholesteryl oleate formation to 50% of control.

Row | pIC50 | SMILES
1 | 5.37 | CCCCc1ccc(OCCCC(C)(C)C(=O)Nc2ccccc2OC)cc1 [Example 2, 5-(4-butylphenoxy)-N-(2-methoxyphenyl)-2,2-dimethylpentanamide]
2 | 6.34 | CCCCc1ccc(OCCCC(C)(C)C(=O)Nc2c(OC)cc(OC)cc2OC)cc1 [Example 4, 5-(4-butylphenoxy)-2,2-dimethyl-N-(2,4,6-trimethoxyphenyl)-pentanamide]
3 | 6.10 | CCCCc1ccc(OCCCC(C)(C)C(=O)NC(C)c2ccccn2)cc1 (centres unmarked) [Example 5, 5-(4-butylphenoxy)-2,2-dimethyl-N-[1-(2-pyridinyl)ethyl]pentanamide]
4 | 5.05 | CCCCc1ccc(OCCCC(C)(C)C(=O)Nc2c(OC)ncnc2OC)cc1 [Example 7, 5-(4-butylphenoxy)-N-(4,6-dimethoxy-5-pyrimidinyl)-2,2-dimethylpentanamide]
5 | 5.85 | Cc1ccc(NC(=O)C(C)(C)CCCOc2ccc(C(C)(C)C)cc2)c(C)c1 [Example 8, 5-[4-(1,1-dimethylethyl)phenoxy]-N-(2,4-dimethylphenyl)-2,2-dimethylpentanamide]
6 | 5.92 | CC(C)(CCCOc1ccc(C(C)(C)C)cc1)C(=O)Nc1ccc(F)cc1F [Example 9, N-(2,4-difluorophenyl)-5-[4-(1,1-dimethylethyl)phenoxy]-2,2-dimethylpentanamide]
7 | 6.15 | CC(NC(=O)C(C)(C)CCCOc1ccc(C(C)(C)C)cc1)c1ccccn1 (centres unmarked) [Example 12, 5-[4-(1,1-dimethylethyl)phenoxy]-2,2-dimethyl-N-[1-(2-pyridinyl)ethyl]pentanamide]
8 | 6.35 | CCCCCCCCc1ccc(OCCCC(C)(C)C(=O)NC(C)c2ccccn2)cc1 (centres unmarked) [Example 17, 2,2-dimethyl-5-(4-octylphenoxy)-N-[1-(2-pyridinyl)ethyl]pentanamide]

Continued, molecule first:

Row | SMILES | pIC50
9 | Cc1ccc(OCCCC(C)(C)C(=O)NC(C)c2ccccn2)cc1 (centres unmarked) [Example 1, 2,2-dimethyl-5-(4-methylphenoxy)-N-[1-(2-pyridinyl)ethyl]pentanamide] | 5.32
10 | CCCCc1ccc(OCCCC(C)(C)C(=O)Nc2ccc(C)cc2OC)cc1 [Example 3, 5-(4-butylphenoxy)-N-(2-methoxy-4-methylphenyl)-2,2-dimethylpentanamide] | 5.62
11 | COc1cc(OC)c(NC(=O)C(C)(C)CCCOc2ccc(C(C)(C)C)cc2)c(OC)c1 [Example 10, 5-[4-(1,1-dimethylethyl)phenoxy]-2,2-dimethyl-N-(2,4,6-trimethoxyphenyl)pentanamide] | 7.36
12 | CCC(C)(C)c1ccc(OCCCC(C)(C)C(=O)NC(C)c2ccccn2)cc1 (centres unmarked) [Example 13, 5-[4-(1,1-dimethylpropyl)phenoxy]-2,2-dimethyl-N-[1-(2-pyridinyl)ethyl]pentanamide] | 6.80
13 | CCCCCCc1ccc(OCCCC(C)(C)C(=O)NC(C)c2ccccn2)cc1 (centres unmarked) [Example 15, 5-(4-hexylphenoxy)-2,2-dimethyl-N-[1-(2-pyridinyl)ethyl]pentanamide] | 6.15
14 | CCCCCCCCc1ccc(OCCCC(C)(C)C(=O)Nc2c(OC)cc(OC)cc2OC)cc1 [Example 16, 2,2-dimethyl-5-(4-octylphenoxy)-N-(2,4,6-trimethoxyphenyl)pentanamide] | 6.10

From patent publication EP0252524A2, “Aryl- and aralkylamide- derivatives of Omega- (substituted-phenyloxy)-alkanoic acids as inhibitors of acyl-coa: cholesterol acyltransferase and pharmaceuticals containing them” (WARNER-LAMBERT COMPANY, priority 1986, dated 1988)
